Like-named read-outs stand apart in the source and are kept apart here.
Experiment: Clinical study, steady state PK (Cycle 1 Day 15) after daily oral tablets of example 1
Format: in vivo, human
Conditions: for AUC(0-t) / Cmax / Tmax / half-life / AUC: human, in vivo; for Tmax: median (minimum-maximum); for half-life: read-out: T½ (converted)
Description: Non-small cell lung cancer patients with EGFR T790M mutation were enrolled in a clinical study and received escalating doses of EGF816 ranging from 100 mg to 225 mg daily oral doses by using the tablets as described in example 1.

[1] = 150 mg qd (N = 6), geometric mean (CV %)
[2] = 200 mg qd (N = 7), geometric mean (CV %)
[3] = 225 mg qd (N = 7), geometric mean (CV %)
[4] = 100 mg qd (N = 3), geometric mean (CV %)

With `Cc1cc(C(=O)Nc2nc3cccc(Cl)c3n2[C@@H]2CCCCN(C(=O)/C=C/CN(C)C)C2)ccn1` [EGF816, (R,E)-N-(7-chloro-1-(1-(4-(dimethylamino)but-2-enoyl)azepan-3-yl)-1H-benzo[d]imidazol-2-yl)-2-methylisonicotinamide] the CLss/F [1] was 238 (38) mL/min, the CLss/F [2] was 247 (58) mL/min and the CLss/F [3] was 222 (37) mL/min. For the same compound, the AUC(0-t) [4] was 9050 ng·h/mL, the Cmax [4] was 519 ng/mL and the Tmax (100 mg qd (N = 3)) was 6 h. It also gave a half-life (100 mg qd (N = 3), only one value calculated) of 14 h, an AUC [1] of 10500 ng·h/mL and an AUC(0-t) [1] of 10300 ng·h/mL. It also gave a Cmax [1] of 675 ng/mL, a half-life [1] of 17 h and a Tmax (150 mg qd (N = 6)) of 5 h. For the same compound, the AUC [2] was 13500 ng·h/mL, the AUC(0-t) [2] was 13500 ng·h/mL and the Cmax [2] was 939 ng/mL. For the same compound, the half-life [2] was 13 h, the Tmax (200 mg qd (N = 7)) was 3 h and the AUC [3] was 16900 ng·h/mL. The AUC(0-t) [3] was 12100 ng·h/mL, the Cmax [3] was 1270 ng/mL and the half-life [3] was 10 h. For the same compound, the Tmax (225 mg qd (N = 7)) was 3 h.
